Reference: US20230146455A1, “TREATMENT OF INFLAMMATORY DISEASES WITH PEPTIDES AND PHARMACEUTICAL COMPOSITIONS” (Yuyu Pharma, Inc., priority 2020, published 2023)
Several values for one entry are separate records, joined by “and”; a condition that tells them apart may be missing. Equal values may be shown once. Where a SMILES comes first, the peptide text is derived from it. [ ]: non-standard residue; d: D form. Hyp = O=C(O)[C@@H]1C[C@@H](O)CN1

Test system: CCL3/MIP-1 alpha
Test: Example 8 main study Luminex, LPS hPBMCs: CCL3/MIP-1 alpha
Format: cell-based, human
Protocol: Human PBMCs were pretreated with YY-101, YDE-011, YDE-043 or reference compound; Xiidra® at various concentration (ranging from […] to 500 nM) for 2 h before stimulation. An equal volume of 0.5% DMSO was used as a vehicle control. Then, the cells were treated with LPS at 5 ug/ml, which was selected based on the pilot study. The supernatants from treated cells were harvested at 24 h and placed in a 96 well for Luminex cytokine & chemokine profiling using a Luminex 200 multiplex assay (Luminex; R&D system, USA).
The main study arm with triplicate wells per group in a 24-well plate: • 1. Blank • 2. PBMC: 0.5% DMSO • 3. PBMC+LPS (5 ug/ml) • 4. PBMC+YY-101 500 nM • 5. PBMC+YY-101 50 nM • 6. PBMC+YY-101 5 nM • 7. PBMC+YY-101 0.5 nM • 8. PBMC+LPS (5 ug/ml)+Xiidra® 500 nM • 9. PBMC+LPS (5 ug/ml)+Xiidra® 50 nM • 10. PBMC+LPS (5 ug/ml)+Xiidra® 5 nM • 11. PBMC+LPS (5 ug/ml)+Xiidra® 0.5 nM • 12. PBMC+LPS (5 ug/ml)+Xiidra® 0.05 nM • 13. PBMC+LPS (5 ug/ml)+Xiidra® 0.005 nM • 14. PBMC+LPS (5 ug/ml)+YY-101 500 nM • 15. PBMC+LPS (5 ug/ml)+YY-101 50 nM • 16. PBMC+LPS (5 ug/ml)+YY-101 5 nM • 17. PBMC+LPS (5 ug/ml)+YY-101 0.5 nM • 18. PBMC+LPS (5 ug/ml)+YY-101 0.05 nM • 19. PBMC+LPS (5 ug/ml)+YY-101 0.005 nM • 20. PBMC+LPS (5 ug/ml)+YDE-011 500 nM • 21. PBMC+LPS (5 ug/ml)+YDE-011 50 nM • 22. PBMC+LPS (5 ug/ml)+YDE-011 5 nM • 23. PBMC+LPS (5 ug/ml)+YDE-011 0.5 nM • 24. PBMC+LPS (5 ug/ml)+YDE-011 0.05 nM • 25. PBMC+LPS (5 ug/ml)+YDE-011 0.005 nM • 26. PBMC+LPS (5 ug/ml)+YDE-043 500 nM • 27. PBMC+LPS (5 ug/ml)+YDE-043 50 nM • 28. PBMC+LPS (5 ug/ml)+YDE-043 5 nM • 29. PBMC+LPS (5 ug/ml)+YDE-043 0.5 nM • 30. PBMC+LPS (5 ug/ml)+YDE-043 0.05 nM • 31. PBMC+LPS (5 ug/ml)+YDE-043 0.005 nM
Multiplex assay was used to measure 30 cytokines and chemokines. The 1:200 diluted cell supernatant and serial dilution of the standard were dispensed into a 96 well plate at 50 ul/well. Then, the pre-mixed cocktail of antibody-coated magnetic beads was dispensed at 50 ul/well and incubated at room temperature for 2 h in a horizontal orbital microplate shaker at 800±500 rpm. The beads were washed using a magnetic device to prevent loss. The biotin-antibody was dispensed in 50 ul of each well and incubated at room temperature for 1 h in a shaker at 800±500 rpm. After washing, streptavidin-PE was added at 50 ul/well and incubated at room temperature for 30 min in a shaker under the same conditions. Finally, after washing, wash buffer (100 ul/well) was added to the plate and incubated in a shaker for 2 min. The Luminex™ 200 setting were set according to the manufacturer's protocol. The data was calculated with a standard five-parameter logistic nonlinear regression analysis of the data (xPonent software 4.2, USA). Results were presented as concentration (ng/ml or pg/ml).

[1] = PBMC + LPS(5 ug/ml) + test article 0.005 nM, Mean
[2] = PBMC + LPS(5 ug/ml) + test article 0.005 nM, single replicates
[3] = PBMC + LPS(5 ug/ml) + test article 0.05 nM, Mean
[4] = PBMC + LPS(5 ug/ml) + test article 0.05 nM, single replicates
[5] = PBMC + LPS(5 ug/ml) + test article 0.5 nM, Mean
[6] = PBMC + LPS(5 ug/ml) + test article 0.5 nM, single replicates
[7] = PBMC + LPS(5 ug/ml) + test article 5 nM, Mean
[8] = PBMC + LPS(5 ug/ml) + test article 5 nM, single replicates
[9] = PBMC + LPS(5 ug/ml) + test article 50 nM, Mean
[10] = PBMC + LPS(5 ug/ml) + test article 50 nM, single replicates
[11] = PBMC + LPS(5 ug/ml) + test article 500 nM, Mean
[12] = PBMC + LPS(5 ug/ml) + test article 500 nM, single replicates
[13] = PBMC + test article 0.5 nM, no LPS, Mean
[14] = PBMC + test article 0.5 nM, no LPS, single replicates
[15] = PBMC + test article 5 nM, no LPS, Mean
[16] = PBMC + test article 5 nM, no LPS, single replicates
[17] = PBMC + test article 0.05 uM, no LPS, Mean
[18] = PBMC + test article 0.05 uM, no LPS, single replicates
[19] = PBMC + test article 50 nM, no LPS, Mean
[20] = PBMC + test article 50 nM, no LPS, single replicates
[21] = PBMC + test article 500 nM, no LPS, Mean

## CC(C)C[C@H](NC(=O)CNC(=O)[C@H](CC(=O)O)NC(=O)[C@H](CCC(N)=O)NC(=O)CNC(=O)[C@@H]1C[C@@H](O)CN1)C(=O)N[C@@H](C)C(=O)NCC(=O)N1CCC[C@H]1C(=O)N[C@@H](CCCCN)C(=O)O [YY-101] (H-[Hyp]GQDGLAGPK-OH; N-terminus and C-terminus assumed)
[1]
  CCL3/MIP-1 alpha Concentration: 33793.5 pg/mL
  CCL3/MIP-1 alpha MFI: 46.8
[2]
  CCL3/MIP-1 alpha Concentration: 35134.4 pg/mL and 33380.1 pg/mL and 32865.8 pg/mL
  CCL3/MIP-1 alpha MFI: 49.5 and 46.0 and 45.0
[3]
  CCL3/MIP-1 alpha Concentration: 36420.8 pg/mL
  CCL3/MIP-1 alpha MFI: 52.2
[4]
  CCL3/MIP-1 alpha Concentration: 35866.0 pg/ml (2×) and 37530.4 pg/ml
  CCL3/MIP-1 alpha MFI: 51.0 (2×) and 54.5
[5]
  CCL3/MIP-1 alpha Concentration: 34955.7 pg/mL
  CCL3/MIP-1 alpha MFI: 49.2
[6]
  CCL3/MIP-1 alpha Concentration: 36107.4 pg/mL and 33380.1 pg/mL and 35379.6 pg/mL
  CCL3/MIP-1 alpha MFI: 51.5 and 46.0 and 50.0
[7]
  CCL3/MIP-1 alpha Concentration: 34545.7 pg/mL
  CCL3/MIP-1 alpha MFI: 48.3
[8]
  CCL3/MIP-1 alpha Concentration: 33380.1 pg/mL and 35866.0 pg/mL and 34390.9 pg/mL
  CCL3/MIP-1 alpha MFI: 46.0 and 51.0 and 48.0
[9]
  CCL3/MIP-1 alpha Concentration: 33677.2 pg/mL
  CCL3/MIP-1 alpha MFI: 46.7
[10]
  CCL3/MIP-1 alpha Concentration: 31818.4 pg/mL and 36347.5 pg/mL and 32865.8 pg/mL
  CCL3/MIP-1 alpha MFI: 43.0 and 52.0 and 45.0
[11]
  CCL3/MIP-1 alpha Concentration: 33967.7 pg/mL
  CCL3/MIP-1 alpha MFI: 47.2
[12]
  CCL3/MIP-1 alpha Concentration: 33635.0 pg/mL and 34887.9 pg/mL and 33380.1 pg/mL
  CCL3/MIP-1 alpha MFI: 46.5 and 49.0 and 46.0
[13]
  CCL3/MIP-1 alpha Concentration: 16345.0 pg/mL
  CCL3/MIP-1 alpha MFI: 19.5
[14]
  CCL3/MIP-1 alpha Concentration: 15903.7 pg/mL and 16786.4 pg/mL
  CCL3/MIP-1 alpha MFI: 19.0 and 20.0
[15]
  CCL3/MIP-1 alpha Concentration: 14259.0 pg/mL
  CCL3/MIP-1 alpha MFI: 17.3
[16]
  CCL3/MIP-1 alpha Concentration: 14014.0 pg/mL and 14504.0 pg/mL
  CCL3/MIP-1 alpha MFI: 17.0 and 17.5
[17]
  CCL3/MIP-1 alpha Concentration: 13904.3 pg/mL
  CCL3/MIP-1 alpha MFI: 17.0
[18]
  CCL3/MIP-1 alpha Concentration: 15903.7 pg/mL and 11904.9 pg/mL
  CCL3/MIP-1 alpha MFI: 19.0 and 15.0
[19]
  CCL3/MIP-1 alpha Concentration: 14246.1 pg/mL
  CCL3/MIP-1 alpha MFI: 17.3
[20]
  CCL3/MIP-1 alpha Concentration: 13510.6 pg/mL and 14981.7 pg/mL
  CCL3/MIP-1 alpha MFI: 16.5 and 18.0
[21]
  CCL3/MIP-1 alpha Concentration: 14014.0 pg/mL
  CCL3/MIP-1 alpha MFI: 17.0
PBMC + test article 500 nM, no LPS, single replicates
  CCL3/MIP-1 alpha Concentration: 14014.0 pg/mL
